Reference: patent publication US11690828B2, “Treatment of CNS diseases with sGC stimulators” (Cyclerion Therapeutics, Inc., priority 2016, dated 2023)

Columns and labels:
sGC = experiment: cGMP neuronal cell-based assay; details: rat primary hippocampal neurons; 30 μM DETA-NO; 50% of high control (10 μM Compound Y); read-out: sGC-neuron Abs EC50
Experimental: Rat primary neurons were isolated from fetuses of 18-day pregnant Sprague-Dawley females. The fetuses were collected in Hanks' balanced salt solution (HBSS) and brains were rapidly removed. The cerebral hippocampi were isolated and mechanically fragmented. Further tissue digestion was performed with 0.25% (wt/vol) trypsin solution in HBSS without Ca2+ and Mg2+ for 15 min at 37° C. After trypsination, cells were washed and resuspended in neurobasal medium supplemented with 0.5 mM L-glutamine, 12.5 uM glutamic acid, 2% B-27 and 100 U/mL penicillin, and 100 μg/mL streptomycin. Cells were plated at a density of 4×10^4 cells/well in a poly-D-lysine coated 384-well flat clear-bottom plate (Corning Cat No 354662). Cells were incubated 6-7 days at 37° C. in a humidified chamber with 5% CO2. Media was removed and cells were washed 1× with HBSS containing Ca2+ and Mg2+, and replaced with 40 uL HBSS containing 0.5 mM IBMX, and incubated for 15 minutes at 37° C. 10 uL of a 5× stock of test compounds with diethylenetriamine NONOate (DETA-NO) was added. Final concentration of DETA-NO was 30 μM. Cells were incubated for 20 min at 37° C. Medium was removed, 50 uL of ice-cold 10% acetic acid was added, and incubated for 60 minutes at 4° C. Following centrifugation at 4° C. for 5 minutes at 1000×g to pellet cell debris, the supernatant was aspirated to a clean plate and the samples were analyzed for cGMP content. cGMP concentrations were determined from each sample using LC-MS/MS.
Data were normalized to a high control using the following equation: 100*(Sample−Low Control)/(High Control−Low Control), where the low control is the average of 15 samples treated with 1% DMSO, and the high control is the average of 15 samples treated with 10 μM of the known sGC stimulator Compound Y (depicted in Example 2). Data were fit using a 4-parameter fit (log(agonist) vs. response—variable slope) using GraphPad Prism Software v.5. n=2 for all compounds. […]

[1] = Rat cerebrospinal fluid (CSF) pharmacokinetic properties; format: in vivo; details: male, Sprague-Dawley; for concentration at 1 h: CSF, PO 10 mg/kg in PEG400, 1 h post-dosing, read-out: CSF Conc (nM @ 1 h); for Kp uu at 1 h: PO 10 mg/kg, unbound CSF / unbound plasma
Experimental: PK in rats was determined following oral dosing. For the oral (PO) experiments, a group of 6 male Sprague-Dawley rats with an indwelling catheter placed in the cisterna magna were used. The PO group was dosed with 3 or 10 mg/kg of a compound formulated as a solution in PEG400. PO doses were administered by oral gavage and delivered to the stomach using a syringe and gavage tube. Following oral dosage administration, the gavage tube was flushed with approximately 0.5 mL of water to ensure complete delivery of the full dose.
Plasma and CSF samples were collected as follows: samples of CSF and blood were collected at 1 hour and 2 hours post-dosing. CSF samples (0.05 mL) were collected through the intracisternal catheter. Blood samples (0.25 mL) were collected through retro-orbital sampling. These samples were kept on ice until processed for plasma. Blood samples were centrifuged at 3200 rpm for 5 minutes at approximately 5° C. within 1 hour of collection. Plasma was directly transferred to a 96-well plate tube (0.125 mL). Plug caps were placed on the tubes and the tubes frozen at approximately −70° C. and stored until analysis.
Plasma was collected and analyzed for the presence of compound.
The compound in question and the internal standard were extracted from plasma and CSF by precipitation. Samples were analyzed using liquid chromatography (LC) with tandem mass spectrometric detection (MS/MS) using electrospray ionization. The standard curve range was from 1 to 1000 ng/mL.
Kp,uu is defined as the concentration ratio of unbound drug in CSF to unbound drug in plasma. Unbound drug in plasma (or free plasma concentration) is calculated by multiplying the total plasma concentration by the unbound fraction as determined by plasma protein binding. The CSF concentration is then divided by the free plasma concentration to determine the Kp,uu. (See e.g., Di et al., J. Med. Chem., 56, 2-12 (2013)).

[2] = test system: R6/2 mice hippocampal slices; experiment: Synaptic transmission and plasticity (LTP) in R6/2 mice hippocampal slices; format: cell-based, mouse
Experimental: Preparation of acute mice hippocampal slices. Experiments were carried out with 11 to 12 week-old R6/2 and WT mice provided by the Jackson Laboratory (USA). Hippocampal slices (350 μm thickness) were cut with a Macllwain tissue chopper in an ice-cold oxygenated sucrose solution (Saccharose 250, Glucose 11, NaHCO3 26, KCl 2, NaH2PO4 1.2, MgCl2 7, and CaCl2 0.5 in mM). The slices were incubated 1 hour at room temperature in ACSF of the following composition: Glucose 11, NaHCO3 25, NaCl 126, KCl 3.5, NaH2PO4 1.2, MgCl2 1.3, and CaCl2 2 in mM. Then, the slices were let to recover for at least 1 h.
Slice perfusion and temperature control. During the experiments, the slices were continuously perfused with the ACSF (bubbled with 95% O2-5% CO2) at the rate of 3 mL/min with a peristaltic pump (MEA chamber volume: ˜1 mL). Complete solution exchange in the MEA chamber was achieved 20 s after the switch of solutions. The perfusion liquid was continuously pre-heated at 37° C. just before reaching the MEA chamber with a heated-perfusion cannula (PH01, MultiChannel Systems, Reutlingen, Germany). The temperature of the MEA chamber was maintained at 37±0.1° C. with a heating element located in the MEA amplifier headstage.
Input/Output (I/O) curve: from 100 to 800 μA, by 100 μA steps. The stimulus intensity was then set to a fixed value of 250 μA for the short- and long-term synaptic plasticity measurements.
Short-term plasticity properties: two pulses with a decreasing inter-stimuli interval (e.g. 300 ms, 200 ms, 100 ms, 50 ms, 25 ms) were applied. Compound application: fEPSP were recorded for 10 minutes in control conditions (to verify the baseline steadiness) followed by a 15-minute exposure to the compound (or 25 minutes in the presence of vehicle only for control slices). A second I/O protocol and paired-pulse protocol were applied, as described previously, in the continuous presence of the compound.
Long-Term Potentiation (LTP): Following a 10-minute control period (in the presence of the compound or vehicle for control slices), LTP was induced by a 10×TBS. Potentiation of synaptic transmission was then monitored for an additional 60-minute period (in the continuous presence of the compound or vehicle for control slices).

[3] = 855 nM, R6/2 hippocampal slices

With Fc1ccccc1Cn1nc(-c2nc(C(F)(F)F)n[nH]2)c2cccnc21 [Compound I-2] the EC50 (sGC) was no more than 100 nM, the concentration at 1 h [1] was 62.9 nM and the Kp uu at 1 h [1] was 3.16.

For FC(F)(F)c1n[nH]c(-c2nc(Cc3cncnc3)c3ccccn23)n1 [Compound I-5], the EC50 (sGC) was no more than 100 nM, the “Potentiation in R6/2 slices compared to R6/2 control slices” value ([2]; 855 nM) was “significantly increased” and the “fEPSP amplitude (basal synaptic transmission)” value ([2]; 855 nM for 15 minutes, R6/2 hippocampal slices) was “did not modify”. The I/O characteristics [2, 3] was “significantly higher”, the Paired-pulse properties [2, 3] was “significantly increased” and the “LTP: fEPSP increase at endpoint after HFS” value ([2]; 855 nM, R6/2 hippocampal slices, WT control 36±3%, R6/2 control 15±2%) was 40±6%. The concentration at 1 h [1] was 446 nM and the Kp uu at 1 h [1] was 3.26.
